How the values were obtained:
[1] = tested on: female house mice, Mus musculus (strain: CD-1); experiment: Two-choice T-tube olfactometer bioassay: deterrence from approaching and feeding on a food bait; type: in vivo; conditions: Experiments 1 to 12; single test stimulus 100 μl or 100 mg on cotton ball next to food bait vs unscented chamber
Source text: Female house mice, Mus musculus (strain: CD-1®), were obtained from Charles River Laboratories Ltd (Saint-Constant, QC J5A 2E7, Canada) and cared for by Animal Care Services of Simon Fraser University (“SFU”). On arrival, mice were assigned to four groups of five female mice each. Each group was accommodated in cages (50 cm×40 cm×20 cm) lined with commercial corn cob bedding (Anderson's Bed o'cobs, The Andersons Inc. Maumee, Ohio 43537, USA), provided with Nalgene toys, running wheels (Jamieson's Pet Food Distributors, Ltd, Delta, BC V4G 1C9, Canada), and provisioned with commercial rodent food (LabDiet® Certified Rodent Diet, LabDiet®, St Louis, Mo. 63144, USA) as well as water ad libitum. Cages were maintained at a temperature of 21° C. and a relative humidity of 50%. A reverse photoperiod (12 hours light; 12 hours dark) was maintained to facilitate behavioral bioassays during normal working hours. […]
FIG. 3 depicts data obtained by additional testing of those plant essential oils found most promising in pre-screening experiments (Experiments 2, 5, 8, 9, and 11), running a total of 8 replicates for each of experiments 2, 5, 8, 9 and 11. First-choice, first-fed, and time-spent data were analyzed using g-tests and Student's t-tests, respectively, for these experiments. […]

[2] = tested on: mosquitoes, beetles, and termites; conditions: known from prior knowledge; cited from earlier work

CC1CCC(C(C)C)C(O)C1 (centres unmarked) [menthol, Menthol]
first fed (scented chamber fed in first by mice) [1]: never fed in first

C=CCc1ccc(O)c(OC)c1 [Eugenol]
repellency to insects [2]: repellent
